Assay results: ChEMBL document CHEMBL5120865, “Exploration of 6-methyl-7-(Hetero)Aryl-7-Deazapurine ribonucleosides as antileishmanial agents” (Eur J Med Chem, 2022)

Key:
[1] = Cytotoxicity against Swiss mouse peritoneal macrophages assessed as reduction in cell viability measured after 5 days by microscopic analysis; format: toxicity, cell-based, Peritoneal macrophage; conditions: time 5 day
[2] = Cytotoxicity against human MRC5 cells assessed as reduction in cell viability incubated for 3 days by resazurin dye based fluorescence analysis; format: toxicity; conditions: time 3 day
[3] = Selectivity index, ratio of CC50 for cytotoxicity against human MRC5 cells to EC50 for Trypanosoma cruzi Tulahuen CL2 amastigotes expressing beta galactosidase infected in human MRC5 cells; format: toxicity, cell-based; conditions: read-out: Ratio CC50/EC50
Trypanosoma cruzi = experiment: Antitrypanosomal activity against nifurtimox-sensitive Tulahuen CL2 amastigotes expressing beta galactosidase infected in human MRC5 cells assessed as inhibition of parasite growth using chlorophenol red beta-D-galactopyranoside as substrate and measured after 7 days by spectrophotometric analysis; format: functional, organism-based; conditions: Tulahuen CL2, MRC5, 168 h
Leishmania infantum [4] = experiment: Antileishmanial activity against intracellular Leishmania infantum MHOM/MA(BE)/67 ITMAP263 amastigotes infected in Swiss mouse peritoneal macrophage assessed as inhibition of parasite growth measured after 5 days by geimsa staining based microscopic analysis; format: functional, organism-based; conditions: MHOM/MA(BE)/67 ITMAP263, Peritoneal macrophage, 120 h
[5] = Selectivity index, ratio of CC50 for Cytotoxicity against Swiss mouse peritoneal macrophages to EC50 for intracellular Leishmania infantum MHOM/MA(BE)/67 ITMAP263 amastigotes infected in Swiss mouse peritoneal macrophages; format: toxicity, cell-based; conditions: read-out: Ratio CC50/EC50
[6] = biological target: T1, UDP-glucuronosyltransferases (UGTs) (Homo sapiens, UniProt O60656+O75310+O75795+P06133+P0DTE4+P0DTE5+P16662+P19224+P22309+P22310+P35503+P35504+P36537+P54855+Q6UWM9+Q9BY64+Q9HAW7+Q9HAW8+Q9HAW9); experiment: Metabolic stability in human liver microsomes S9 fraction assessed as UGT-mediated metabolism by measuring parent compound remaining measured after 60 mins in presence of NADPH; format: ADME, subcellular; conditions: read-out: Stability
Leishmania infantum [7] = experiment: Antileishmanial activity against sodium stibogluconate, potassium antimonyl tartrate and PMM resistant intracellular Leishmania infantum MHOM/FR/96/LEM3323-CI4 PMM promastigotes infected in Swiss mouse peritoneal macrophages assessed as inhibition of parasite growth measured after 96 hrs by microscopic analysis; format: functional, organism-based; conditions: Peritoneal macrophage
[8] = Metabolic stability in golden hamster liver microsomes S9 fraction assessed as UGT-mediated metabolism by measuring parent compound remaining measured after 30 mins in presence of NADPH; format: ADME, subcellular, Mesocricetus auratus; conditions: read-out: Stability
[9] = Metabolic stability in mouse liver microsomes S9 fraction assessed as CYP450-mediated metabolism by measuring parent compound remaining measured after 15 mins in presence of NADPH; format: ADME, subcellular; conditions: read-out: Stability
Leishmania infantum [10] = experiment: Antileishmanial activity against sodium stibogluconate, potassium antimonyl tartrate and MIL resistant intracellular Leishmania infantum MHOM/FR/96/LEM3323-CI4 MIL5C13 promastigotes infected in Swiss mouse peritoneal macrophages assessed as inhibition of parasite growth measured after 96 hrs by microscopic analysis; format: functional, organism-based; conditions: MHOM/FR/96/LEM3323-CI4 MIL5C13, Peritoneal macrophage
[11] = biological target: T1, UDP-glucuronosyltransferases (UGTs); experiment: Metabolic stability in human liver microsomes S9 fraction assessed as UGT-mediated metabolism by measuring parent compound remaining measured after 30 mins in presence of NADPH; format: ADME, subcellular; conditions: read-out: Stability
Leishmania infantum [12] = experiment: Antileishmanial activity against sodium stibogluconate and potassium antimonyl tartrate resistant intracellular Leishmania infantum MHOM/FR/96/LEM3323-CI4 promastigotes infected in Swiss mouse peritoneal macrophages assessed as inhibition of parasite growth measured after 96 hrs by microscopic analysis; format: functional, organism-based; conditions: MHOM/FR/96/LEM3323-CI4, Peritoneal macrophage
[13] = Metabolic stability in golden hamster liver microsomes S9 fraction assessed as UGT-mediated metabolism by measuring parent compound remaining measured after 15 mins in presence of NADPH; format: ADME, subcellular, Mesocricetus auratus; conditions: read-out: Stability
Cytochrome P450 [14] = biological target: T2, Cytochrome P450 (Homo sapiens, UniProt P04798+P05177+P05181+P08684+P10632+P10635+P11509+P11712+P13584+P20813+P20815+P20853+P24462+P24903+P33260+P33261+P51589+P78329+P98187+Q02928+Q08477+Q16678+Q16696+Q5TCH4+Q6VVX0+Q7Z449+Q8TAV3+Q96SQ9+Q9HB55); experiment: Metabolic stability in human liver microsomes S9 fraction assessed as CYP450-mediated metabolism by measuring parent compound remaining measured after 30 mins in presence of NADPH; format: ADME, subcellular; conditions: read-out: Stability
[15] = Metabolic stability in mouse liver microsomes S9 fraction assessed as UGT-mediated metabolism by measuring parent compound remaining measured after 15 mins in presence of NADPH; format: ADME, subcellular; conditions: read-out: Stability
[16] = Metabolic stability in mouse liver microsomes S9 fraction assessed as CYP450-mediated metabolism by measuring parent compound remaining measured after 30 mins in presence of NADPH; format: ADME, subcellular; conditions: read-out: Stability
[17] = Metabolic stability in golden hamster liver microsomes S9 fraction assessed as CYP450-mediated metabolism by measuring parent compound remaining measured after 30 mins in presence of NADPH; format: ADME, subcellular, Mesocricetus auratus; conditions: read-out: Stability
[18] = Metabolic stability in mouse liver microsomes S9 fraction assessed as UGT-mediated metabolism by measuring parent compound remaining measured after 60 mins in presence of NADPH; format: ADME, subcellular; conditions: read-out: Stability
[19] = Metabolic stability in golden hamster liver microsomes S9 fraction assessed as CYP450-mediated metabolism by measuring parent compound remaining measured after 60 mins in presence of NADPH; format: ADME, subcellular, Mesocricetus auratus; conditions: read-out: Stability
[20] = Metabolic stability in golden hamster liver microsomes S9 fraction assessed as CYP450-mediated metabolism by measuring parent compound remaining measured after 15 mins in presence of NADPH; format: ADME, subcellular, Mesocricetus auratus; conditions: read-out: Stability
Cytochrome P450 [21] = biological target: T2, Cytochrome P450; experiment: Metabolic stability in human liver microsomes S9 fraction assessed as CYP450-mediated metabolism by measuring parent compound remaining measured after 15 mins in presence of NADPH; format: ADME, subcellular; conditions: read-out: Stability
[22] = Metabolic stability in mouse liver microsomes S9 fraction assessed as UGT-mediated metabolism by measuring parent compound remaining measured after 30 mins in presence of NADPH; format: ADME, subcellular; conditions: read-out: Stability
Cytochrome P450 [23] = biological target: T2, Cytochrome P450; experiment: Metabolic stability in human liver microsomes S9 fraction assessed as CYP450-mediated metabolism by measuring parent compound remaining measured after 60 mins in presence of NADPH; format: ADME, subcellular; conditions: read-out: Stability
[24] = biological target: T1, UDP-glucuronosyltransferases (UGTs); experiment: Metabolic stability in human liver microsomes S9 fraction assessed as UGT-mediated metabolism by measuring parent compound remaining measured after 15 mins in presence of NADPH; format: ADME, subcellular; conditions: read-out: Stability
[25] = Metabolic stability in mouse liver microsomes S9 fraction assessed as CYP450-mediated metabolism by measuring parent compound remaining measured after 60 mins in presence of NADPH; format: ADME, subcellular; conditions: read-out: Stability
[26] = Metabolic stability in golden hamster liver microsomes S9 fraction assessed as UGT-mediated metabolism by measuring parent compound remaining measured after 60 mins in presence of NADPH; format: ADME, subcellular, Mesocricetus auratus; conditions: read-out: Stability
Leishmania infantum [27] = experiment: Antileishmanial activity against intracellular Leishmania infantum MHOM/MA(BE)/67 amastigotes infected in golden hamster assessed as reduction of amastigote burdens in spleen at 40 mg/kg, po SID for 5 days by geimsa staining based microscopic analysis; format: functional; parameters: scale not given: the % may be the effect or the level left; conditions: time 5 day
Leishmania infantum [28] = experiment: Antileishmanial activity against intracellular Leishmania infantum MHOM/MA(BE)/67 amastigotes infected in golden hamster assessed as reduction of amastigote burdens in liver at 40 mg/kg, po SID for 5 days by geimsa staining based microscopic analysis; format: functional; parameters: scale not given: the % may be the effect or the level left; conditions: time 5 day
Leishmania infantum [29] = experiment: Antileishmanial activity against intracellular Leishmania infantum MHOM/MA(BE)/67 amastigotes infected in golden hamster assessed as reduction of amastigote burdens in bone marrow at 40 mg/kg, po SID for 5 days by geimsa staining based microscopic analysis; format: functional; parameters: scale not given: the % may be the effect or the level left; conditions: time 5 day

## Cc1ncnc2c1c(-c1ncccn1)cn2[C@@H]1O[C@H](CO)[C@@H](O)[C@H]1O
[1]
  CC50 at 120 h: > 64 µM
[2]
  CC50 at 72 h: > 64 µM
[3]
  selectivity ratio: > 10
Trypanosoma cruzi; read-out: EC50
  EC50: 5.9 µM
Leishmania infantum [4]
  EC50: 8.2 µM
[5]
  selectivity ratio: > 7.8

## Cc1ncnc2c1c(-c1ncccc1Cl)cn2[C@@H]1O[C@H](CO)[C@@H](O)[C@H]1O
[6]
  remaining at 1 h: 101%
[1]
  CC50 at 120 h: > 64 µM
Leishmania infantum [7]
  EC50: 1.46 µM
[8]
  remaining at 0.5 h: 96%
[9]
  remaining at 0.25 h: 98%
Leishmania infantum [10]
  EC50: 0.73 µM
[11]
  remaining at 0.5 h: 95%
Leishmania infantum [12]
  EC50: 0.67 µM
[2]
  CC50 at 72 h: > 64 µM
[3]
  selectivity ratio: > 91
[13]
  remaining at 0.25 h: 95%
Cytochrome P450 [14]
  remaining at 0.5 h: 100%
[15]
  remaining at 0.25 h: 92%
Trypanosoma cruzi; read-out: EC50
  EC50: 0.7 µM
[16]
  remaining at 0.5 h: 83%
[17]
  remaining at 0.5 h: 98%
Leishmania infantum [4]
  EC50: 1.2 µM
[18]
  remaining at 1 h: 98%
[19]
  remaining at 1 h: 90%
[20]
  remaining at 0.25 h: 86%
Cytochrome P450 [21]
  remaining at 0.25 h: 107%
[22]
  remaining at 0.5 h: 91%
Cytochrome P450 [23]
  remaining at 1 h: 99%
[24]
  remaining at 0.25 h: 93%
[5]
  selectivity ratio: > 50
[25]
  remaining at 1 h: 74%
[26]
  remaining at 1 h: 96%

## Cc1ncnc2c1c(-c1ccccn1)cn2[C@@H]1O[C@H](CO)[C@@H](O)[C@H]1O
[1]
  CC50 at 120 h: > 64 µM
[2]
  CC50 at 72 h: > 64 µM
[3]
  selectivity ratio: > 39
Trypanosoma cruzi; read-out: EC50
  EC50: 1.6 µM
Leishmania infantum [4]
  EC50: 2.3 µM
[5]
  selectivity ratio: > 27

## Cc1ncnc2c1c(-c1cccc3c1N=CC3)cn2[C@@H]1O[C@H](CO)[C@@H](O)[C@H]1O
[1]
  CC50 at 120 h: > 64 µM
[2]
  CC50 at 72 h: > 64 µM
[3]
  selectivity ratio: > 19
Trypanosoma cruzi; read-out: EC50
  EC50: 3.3 µM
Leishmania infantum [4]
  EC50: 2.1 µM
[5]
  selectivity ratio: > 30

## Cc1ncnc2c1c(-c1cc3ccccc3[nH]1)cn2[C@@H]1O[C@H](CO)[C@@H](O)[C@H]1O
[1]
  CC50 at 120 h: > 64 µM
[2]
  CC50 at 72 h: 14.8 µM
[3]
  selectivity ratio: 24
Trypanosoma cruzi; read-out: EC50
  EC50: 0.62 µM
Leishmania infantum [4]
  EC50: 1.7 µM
[5]
  selectivity ratio: > 36

## Cc1ncnc2c1c(-c1cccc3cccnc13)cn2[C@@H]1O[C@H](CO)[C@@H](O)[C@H]1O
[1]
  CC50 at 120 h: > 64 µM
[2]
  CC50 at 72 h: > 64 µM
[3]
  selectivity ratio: > 6.7
Trypanosoma cruzi; read-out: EC50
  EC50: 9.6 µM
Leishmania infantum [4]
  EC50: 3.7 µM
[5]
  selectivity ratio: > 17

## O=C(Cn1ccnc1[N+](=O)[O-])NCc1ccccc1 [BENZNIDAZOLE]
Trypanosoma cruzi
  EC50: 2.28 µM

## Cc1ncnc2c1c(-c1nccs1)cn2[C@@H]1O[C@H](CO)[C@@H](O)[C@H]1O
[1]
  CC50 at 120 h: 32 µM
[2]
  CC50 at 72 h: 6.06 µM
[3]
  selectivity ratio: 9.2
Trypanosoma cruzi; read-out: EC50
  EC50: 0.66 µM
Leishmania infantum [4]
  EC50: 2.07 µM
[5]
  selectivity ratio: 15.5

## Cc1ncnc2c1c(-c1cncnc1)cn2[C@@H]1O[C@H](CO)[C@@H](O)[C@H]1O
[1]
  CC50 at 120 h: > 64 µM
[2]
  CC50 at 72 h: > 64 µM
[3]
  selectivity ratio: > 8.8
Trypanosoma cruzi; read-out: EC50
  EC50: 7.3 µM
Leishmania infantum [4]
  EC50: 6.5 µM
[5]
  selectivity ratio: > 9.9

## Cc1ncnc2c1c(-c1ccc(Cl)cn1)cn2[C@@H]1O[C@H](CO)[C@@H](O)[C@H]1O
[1]
  CC50 at 120 h: > 64 µM
[2]
  CC50 at 72 h: 26.3 µM
[3]
  selectivity ratio: 53
Trypanosoma cruzi; read-out: EC50
  EC50: 0.49 µM
Leishmania infantum [4]
  EC50: 0.4 µM
[5]
  selectivity ratio: > 160

## Cc1ncnc2c1c(-c1ccc[nH]1)cn2[C@@H]1O[C@H](CO)[C@@H](O)[C@H]1O
[1]
  CC50 at 120 h: 32 µM
[2]
  CC50 at 72 h: 12.9 µM
[3]
  selectivity ratio: 19
Trypanosoma cruzi; read-out: EC50
  EC50: 0.68 µM
Leishmania infantum [4]
  EC50: 0.35 µM
[5]
  selectivity ratio: 91.4

## COc1ccccc1-c1cn([C@@H]2O[C@H](CO)[C@@H](O)[C@H]2O)c2ncnc(C)c12
[1]
  CC50 at 120 h: > 64 µM
[2]
  CC50 at 72 h: > 64 µM
Leishmania infantum [4]
  EC50: 21.1 µM
[5]
  selectivity ratio: > 3

## CCCCCCCCCCCCCCCCOP(=O)([O-])OCC[N+](C)(C)C [MILTEFOSINE]
Leishmania infantum [27]
  Activity: 99.2%
Leishmania infantum [28]
  Activity: 94%
Leishmania infantum [4]
  EC50: 8.3 µM
Leishmania infantum [29]
  Activity: 93.1%
